Measurements from ChEMBL document CHEMBL1146943, “Synthesis, in vitro and in vivo evaluation of [O-methyl-11C] 2-{4-[4-(3-methoxyphenyl)piperazin-1-yl]-butyl}-4-methyl-2H-[1,2,4]-triazine-3,5-dione: a novel agonist 5-HT1A receptor PET ligand” (Bioorg Med Chem Lett, 2006).
pEC50, pKi: −log10 of the molar value.

Key:
[1] = target: Translocator protein (Homo sapiens, UniProt P30536); experiment: Binding affinity to BZP receptor by radioligand binding assay
[2] = target: 5-hydroxytryptamine receptor 1A (Homo sapiens) (UniProt P08908); experiment: Agonist activity assessed by stimulation of [35S]GTP-gamma-S binding to human 5HT1A receptor expressed in CHO cells relative to 5-HT; assay type: functional, cell-based
Sequence of 5-hydroxytryptamine receptor 1A (Homo sapiens) (P08908 whole entry): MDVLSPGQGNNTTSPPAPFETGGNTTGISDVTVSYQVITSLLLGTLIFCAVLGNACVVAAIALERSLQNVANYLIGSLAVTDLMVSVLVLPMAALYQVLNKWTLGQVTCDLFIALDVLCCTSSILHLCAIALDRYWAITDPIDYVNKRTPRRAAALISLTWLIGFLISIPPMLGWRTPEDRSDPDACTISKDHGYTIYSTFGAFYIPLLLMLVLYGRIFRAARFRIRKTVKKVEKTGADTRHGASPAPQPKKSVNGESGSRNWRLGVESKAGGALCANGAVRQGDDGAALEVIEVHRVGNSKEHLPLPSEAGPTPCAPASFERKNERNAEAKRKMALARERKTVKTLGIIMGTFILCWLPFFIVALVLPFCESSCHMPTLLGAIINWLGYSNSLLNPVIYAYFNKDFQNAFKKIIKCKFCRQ

[3] = target: Glutamate receptor ionotropic AMPA (Homo sapiens, UniProt P42261+P42262+P42263+P48058); experiment: Binding affinity to AMPA receptor by radioligand binding assay; assay type: protein-complex assay
[4] = Binding affinity to VMAT by radioligand binding assay
[5] = target: 5-hydroxytryptamine receptor 7 (Homo sapiens, UniProt P34969); experiment: Binding affinity to 5HT7 receptor by radioligand binding assay
[6] = target: Histamine H4 receptor (Homo sapiens, UniProt Q9H3N8); experiment: Binding affinity to histamine H4 receptor by radioligand binding assay
[7] = target: Alpha-1B adrenergic receptor (Homo sapiens, UniProt P35368); experiment: Binding affinity to alpha 1B adrenergic receptor by radioligand binding assay
[8] = target: Adenosine receptor A2a (Homo sapiens, UniProt P29274); experiment: Binding affinity to adenosine […] receptor by radioligand binding assay
[9] = target: Voltage-gated inwardly rectifying potassium channel KCNH2 (Homo sapiens, UniProt Q12809); experiment: Binding affinity to hERG by radioligand binding assay
Sequence of Voltage-gated inwardly rectifying potassium channel KCNH2 (Q12809 whole entry): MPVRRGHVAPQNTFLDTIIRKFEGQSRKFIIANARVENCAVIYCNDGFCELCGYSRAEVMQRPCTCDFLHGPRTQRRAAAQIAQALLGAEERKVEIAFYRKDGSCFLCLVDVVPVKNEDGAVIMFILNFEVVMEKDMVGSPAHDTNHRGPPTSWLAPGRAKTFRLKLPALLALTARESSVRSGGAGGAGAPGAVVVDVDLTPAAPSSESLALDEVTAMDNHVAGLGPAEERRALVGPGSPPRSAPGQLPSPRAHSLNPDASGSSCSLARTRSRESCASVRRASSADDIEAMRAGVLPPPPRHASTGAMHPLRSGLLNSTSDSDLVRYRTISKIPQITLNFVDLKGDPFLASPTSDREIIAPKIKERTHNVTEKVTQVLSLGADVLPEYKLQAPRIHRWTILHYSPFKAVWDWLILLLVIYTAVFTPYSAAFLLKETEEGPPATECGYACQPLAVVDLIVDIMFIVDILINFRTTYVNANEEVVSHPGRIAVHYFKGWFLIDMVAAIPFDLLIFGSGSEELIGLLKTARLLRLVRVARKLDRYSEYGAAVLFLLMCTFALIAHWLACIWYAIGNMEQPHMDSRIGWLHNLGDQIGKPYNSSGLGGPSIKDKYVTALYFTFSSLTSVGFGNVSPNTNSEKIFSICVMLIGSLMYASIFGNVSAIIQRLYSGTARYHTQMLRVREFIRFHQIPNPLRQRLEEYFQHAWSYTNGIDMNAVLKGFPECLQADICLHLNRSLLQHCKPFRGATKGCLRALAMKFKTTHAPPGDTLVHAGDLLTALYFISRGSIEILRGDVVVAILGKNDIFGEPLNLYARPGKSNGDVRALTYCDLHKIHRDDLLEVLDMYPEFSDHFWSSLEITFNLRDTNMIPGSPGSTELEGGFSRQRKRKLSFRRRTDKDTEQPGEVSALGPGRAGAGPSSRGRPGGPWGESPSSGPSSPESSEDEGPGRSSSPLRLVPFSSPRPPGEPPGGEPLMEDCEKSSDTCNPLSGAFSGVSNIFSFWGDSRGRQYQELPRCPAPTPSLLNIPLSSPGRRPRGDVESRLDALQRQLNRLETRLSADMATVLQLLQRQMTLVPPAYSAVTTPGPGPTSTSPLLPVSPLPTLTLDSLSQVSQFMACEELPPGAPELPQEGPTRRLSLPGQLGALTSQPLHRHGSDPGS

[10] = target: D(3) dopamine receptor (Homo sapiens, UniProt P35462); experiment: Binding affinity to D3 receptor by radioligand binding assay
Sequence of D(3) dopamine receptor (P35462 whole entry): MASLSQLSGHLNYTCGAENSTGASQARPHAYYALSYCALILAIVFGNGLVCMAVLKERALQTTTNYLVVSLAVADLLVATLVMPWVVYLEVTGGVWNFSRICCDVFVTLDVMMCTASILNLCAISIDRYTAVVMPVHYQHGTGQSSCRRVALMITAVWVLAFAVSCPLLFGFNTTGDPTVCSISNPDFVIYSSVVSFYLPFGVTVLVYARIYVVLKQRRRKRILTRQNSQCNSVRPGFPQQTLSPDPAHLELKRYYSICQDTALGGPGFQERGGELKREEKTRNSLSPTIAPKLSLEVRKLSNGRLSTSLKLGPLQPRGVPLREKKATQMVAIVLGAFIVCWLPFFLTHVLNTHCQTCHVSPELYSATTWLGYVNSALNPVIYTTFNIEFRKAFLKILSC

[11] = target: Serotonin 3 (5-HT3) receptor; experiment: Binding affinity to 5HT3 receptor by radioligand binding assay; assay type: protein-complex assay, Homo sapiens
[12] = target: Kappa-type opioid receptor (Homo sapiens, UniProt P41145); experiment: Binding affinity to KOR by radioligand binding assay
[13] = target: GABA-A receptor; anion channel; experiment: Binding affinity to GABA receptor by radioligand binding assay; assay type: protein-complex assay
[14] = Binding affinity to calcium channel by radioligand binding assay
[15] = target: ATP-dependent translocase ABCB1 (Homo sapiens, UniProt P08183); experiment: Binding affinity to MDR1 by radioligand binding assay
[16] = target: Adenosine receptor A3 (Homo sapiens, UniProt P0DMS8); experiment: Binding affinity to adenosine A3 receptor by radioligand binding assay
Sequence of Adenosine receptor A3 (P0DMS8 whole entry): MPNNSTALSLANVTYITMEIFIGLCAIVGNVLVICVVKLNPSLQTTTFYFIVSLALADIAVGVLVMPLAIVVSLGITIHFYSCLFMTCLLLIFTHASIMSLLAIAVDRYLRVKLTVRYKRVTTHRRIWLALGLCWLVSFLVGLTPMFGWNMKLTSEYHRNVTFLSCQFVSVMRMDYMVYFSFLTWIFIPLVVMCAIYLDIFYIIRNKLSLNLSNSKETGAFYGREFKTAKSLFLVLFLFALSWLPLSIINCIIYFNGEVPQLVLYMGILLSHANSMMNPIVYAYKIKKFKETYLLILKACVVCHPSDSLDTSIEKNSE

[17] = target: Histamine H1 receptor (Homo sapiens, UniProt P35367); experiment: Binding affinity to histamine H1 receptor by radioligand binding assay
Sequence of Histamine H1 receptor (P35367 whole entry): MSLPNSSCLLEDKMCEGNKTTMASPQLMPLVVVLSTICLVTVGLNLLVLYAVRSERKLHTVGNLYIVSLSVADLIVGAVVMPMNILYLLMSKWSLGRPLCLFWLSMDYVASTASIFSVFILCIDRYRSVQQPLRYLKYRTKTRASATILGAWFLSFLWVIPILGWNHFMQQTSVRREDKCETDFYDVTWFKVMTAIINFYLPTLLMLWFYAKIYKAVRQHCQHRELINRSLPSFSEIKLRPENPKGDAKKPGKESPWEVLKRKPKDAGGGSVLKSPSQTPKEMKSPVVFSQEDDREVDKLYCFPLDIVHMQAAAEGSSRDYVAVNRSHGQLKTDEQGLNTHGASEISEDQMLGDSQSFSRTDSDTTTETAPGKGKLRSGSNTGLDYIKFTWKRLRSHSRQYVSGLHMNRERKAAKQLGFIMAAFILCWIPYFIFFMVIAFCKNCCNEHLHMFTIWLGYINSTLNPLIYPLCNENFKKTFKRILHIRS

[18] = target: Adenosine A2 receptor (Homo sapiens, UniProt P29275+P29274); experiment: Binding affinity to adenosine A2 receptor by radioligand binding assay; assay type: protein assay
[19] = target: Sigma non-opioid intracellular receptor 1 (Homo sapiens, UniProt Q99720); experiment: Binding affinity to sigma1 opioid receptor by radioligand binding assay
[20] = target: Glutamate receptor ionotropic kainate; experiment: Binding affinity to KAR by radioligand binding assay; assay type: protein-complex assay
[21] = target: Alpha-2C adrenergic receptor (Homo sapiens, UniProt P18825); experiment: Binding affinity to alpha 2C adrenergic receptor by radioligand binding assay
[22] = target: 5-hydroxytryptamine receptor 1E (Homo sapiens, UniProt P28566); experiment: Binding affinity to 5HT1E receptor by radioligand binding assay
Sequence of 5-hydroxytryptamine receptor 1E (P28566 whole entry): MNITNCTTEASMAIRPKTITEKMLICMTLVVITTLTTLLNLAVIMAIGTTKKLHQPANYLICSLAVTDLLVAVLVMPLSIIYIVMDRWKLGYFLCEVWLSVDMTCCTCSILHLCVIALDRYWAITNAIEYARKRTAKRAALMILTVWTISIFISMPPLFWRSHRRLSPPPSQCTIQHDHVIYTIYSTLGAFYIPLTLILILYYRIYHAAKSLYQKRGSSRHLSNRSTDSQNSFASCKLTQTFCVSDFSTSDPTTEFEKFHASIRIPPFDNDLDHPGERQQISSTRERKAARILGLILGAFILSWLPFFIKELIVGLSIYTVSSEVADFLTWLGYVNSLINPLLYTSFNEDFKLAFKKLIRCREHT

[23] = target: Glutamate [NMDA] receptor; experiment: Binding affinity to NMDA receptor by radioligand binding assay; assay type: protein-complex assay
[24] = target: 5-hydroxytryptamine receptor 2A (Homo sapiens, UniProt P28223); experiment: Binding affinity to 5HT2A receptor by radioligand binding assay
[25] = target: Sodium-dependent dopamine transporter (Homo sapiens, UniProt Q01959); experiment: Binding affinity to DAT by radioligand binding assay
[26] = Binding affinity to mGluR by radioligand binding assay; parameters: species or system Homo sapiens
[27] = Binding affinity to EP receptor by radioligand binding assay
[28] = target: Histamine H3 receptor (Homo sapiens, UniProt Q9Y5N1); experiment: Binding affinity to histamine H3 receptor by radioligand binding assay
[29] = target: Alpha-1A adrenergic receptor (Homo sapiens, UniProt P35348); experiment: Binding affinity to alpha 1A adrenergic receptor by radioligand binding assay
[30] = target: D(2) dopamine receptor (Homo sapiens, UniProt P14416); experiment: Binding affinity to D2 dopamine receptor by radioligand binding assay
[31] = target: 5-hydroxytryptamine receptor 1B (Homo sapiens, UniProt P28222); experiment: Binding affinity to 5HT1B receptor by radioligand binding assay
[32] = target: Sodium-dependent noradrenaline transporter (Homo sapiens, UniProt P23975); experiment: Binding affinity to NET by radioligand binding assay
[33] = target: D(1B) dopamine receptor (Homo sapiens, UniProt P21918); experiment: Binding affinity to D5 dopamine receptor by radioligand binding assay
Sequence of D(1B) dopamine receptor (P21918 whole entry): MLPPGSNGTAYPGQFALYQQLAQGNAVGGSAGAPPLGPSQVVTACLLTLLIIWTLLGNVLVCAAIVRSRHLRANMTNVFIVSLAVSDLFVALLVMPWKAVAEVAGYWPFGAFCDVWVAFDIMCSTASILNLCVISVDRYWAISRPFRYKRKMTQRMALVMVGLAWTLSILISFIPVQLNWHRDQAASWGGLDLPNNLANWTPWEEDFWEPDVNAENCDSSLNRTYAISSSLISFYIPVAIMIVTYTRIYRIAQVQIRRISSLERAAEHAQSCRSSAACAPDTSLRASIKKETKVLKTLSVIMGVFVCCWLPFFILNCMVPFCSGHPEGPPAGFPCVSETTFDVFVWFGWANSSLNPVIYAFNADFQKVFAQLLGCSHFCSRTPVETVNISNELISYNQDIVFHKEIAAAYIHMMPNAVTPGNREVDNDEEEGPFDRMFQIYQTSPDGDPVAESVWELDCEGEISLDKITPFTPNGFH

[34] = target: T1, 5-hydroxytryptamine receptor 1A (Homo sapiens, UniProt P08908); experiment: Binding affinity to 5HT1A receptor by radioligand binding assay
T1 sequence (P08908 whole entry): as the sequence (P08908 whole entry) above

[35] = target: D(4) dopamine receptor (Homo sapiens, UniProt P21917); experiment: Binding affinity to D4 receptor by radioligand binding assay
[36] = Binding affinity to NK receptor by radioligand binding assay
[37] = target: 5-hydroxytryptamine receptor 2B (Homo sapiens, UniProt P41595); experiment: Binding affinity to 5HT2B receptor by radioligand binding assay
[38] = target: Muscarinic acetylcholine receptor; experiment: Binding affinity to M receptor by radioligand binding assay; assay type: protein assay
[39] = target: 5-hydroxytryptamine receptor 6 (Homo sapiens, UniProt P50406); experiment: Binding affinity to 5HT6 receptor by radioligand binding assay
Sequence of 5-hydroxytryptamine receptor 6 (P50406 whole entry): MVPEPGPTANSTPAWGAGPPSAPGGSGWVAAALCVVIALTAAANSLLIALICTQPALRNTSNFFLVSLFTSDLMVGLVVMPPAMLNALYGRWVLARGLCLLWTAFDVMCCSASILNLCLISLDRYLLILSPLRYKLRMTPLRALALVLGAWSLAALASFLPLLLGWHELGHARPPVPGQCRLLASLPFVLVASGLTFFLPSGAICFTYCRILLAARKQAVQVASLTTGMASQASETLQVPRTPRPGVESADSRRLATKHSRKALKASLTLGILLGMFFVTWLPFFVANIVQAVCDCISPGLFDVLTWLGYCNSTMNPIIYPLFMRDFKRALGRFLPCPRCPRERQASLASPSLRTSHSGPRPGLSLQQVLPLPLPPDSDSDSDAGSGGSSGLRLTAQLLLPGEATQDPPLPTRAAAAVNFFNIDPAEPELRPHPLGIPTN

[40] = Binding affinity to V receptor by radioligand binding assay
[41] = target: Alpha-2A adrenergic receptor (Homo sapiens, UniProt P08913); experiment: Binding affinity to alpha 2A adrenergic receptor by radioligand binding assay
[42] = Binding affinity to sodium channel by radioligand binding assay
[43] = target: Delta-type opioid receptor (Homo sapiens, UniProt P41143); experiment: Binding affinity to DOR by radioligand binding assay
[44] = target: Adenosine receptor A1 (Homo sapiens, UniProt P30542); experiment: Binding affinity to adenosine A1 receptor by radioligand binding assay
[45] = target: 5-hydroxytryptamine receptor 5A (Homo sapiens, UniProt P47898); experiment: Binding affinity to 5HT5A receptor by radioligand binding assay
[46] = tested on: Baboon; experiment: Penetration through blood-brain barrier in baboon; assay type: ADME, organism-based, Papio; conditions: in vivo
[47] = target: T1, 5-hydroxytryptamine receptor 1A; experiment: Agonist activity assessed by stimulation of [35S]GTP-gamma-S binding to human 5HT1A receptor expressed in CHO cells; assay type: functional, cell-based
[48] = target: Histamine H2 receptor (Homo sapiens, UniProt P25021); experiment: Binding affinity to histamine H2 receptor by radioligand binding assay
[49] = target: Sodium-dependent serotonin transporter (Homo sapiens, UniProt P31645); experiment: Binding affinity to SERT by radioligand binding assay
Sequence of Sodium-dependent serotonin transporter (P31645 whole entry): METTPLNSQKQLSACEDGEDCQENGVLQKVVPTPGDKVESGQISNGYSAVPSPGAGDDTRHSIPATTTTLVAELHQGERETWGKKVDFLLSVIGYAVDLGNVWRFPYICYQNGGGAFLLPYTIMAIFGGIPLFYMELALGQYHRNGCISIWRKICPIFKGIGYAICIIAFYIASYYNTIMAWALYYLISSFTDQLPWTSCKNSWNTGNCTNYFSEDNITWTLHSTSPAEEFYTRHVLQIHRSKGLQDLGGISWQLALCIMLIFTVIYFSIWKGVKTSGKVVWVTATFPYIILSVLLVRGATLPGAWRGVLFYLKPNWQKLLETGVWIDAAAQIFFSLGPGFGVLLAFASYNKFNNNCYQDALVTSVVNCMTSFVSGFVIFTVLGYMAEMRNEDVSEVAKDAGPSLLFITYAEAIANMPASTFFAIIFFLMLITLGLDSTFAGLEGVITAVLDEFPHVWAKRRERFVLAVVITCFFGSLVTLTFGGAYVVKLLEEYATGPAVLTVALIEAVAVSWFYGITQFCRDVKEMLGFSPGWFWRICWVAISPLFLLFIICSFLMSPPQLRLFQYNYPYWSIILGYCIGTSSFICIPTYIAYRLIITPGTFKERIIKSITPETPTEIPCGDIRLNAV

Sequence of Translocator protein (P30536 whole entry): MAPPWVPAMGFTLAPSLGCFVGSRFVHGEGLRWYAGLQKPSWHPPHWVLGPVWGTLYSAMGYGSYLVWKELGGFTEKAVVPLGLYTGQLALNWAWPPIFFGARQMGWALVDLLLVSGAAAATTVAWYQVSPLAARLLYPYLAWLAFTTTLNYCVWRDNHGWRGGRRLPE

pKi [1]: < 5.00
Emax [2]: 95%
pKi [3]: < 5.00
pKi [4]: < 5.00
pKi [5]: 6.48
pKi [6]: < 5.00
pKi [7]: 6.42
pKi [8]: < 5.00
pKi [10]: < 5.00
pKi [11]: < 5.00
pKi [12]: < 5.00
pKi [13]: < 5.00
pKi [14]: < 5.00
pKi [15]: < 5.00
pKi [16]: < 5.00
pKi [17]: 6.08
Ki [18]: > 10 µM
pKi [19]: 6.74
pKi [20]: < 5.00
pKi [21]: 6.96
pKi [22]: < 5.00
pKi [23]: < 5.00
pKi [24]: 5.68
pKi [25]: < 5.00
pKi [26]: < 5.00
pKi [27]: < 5.00
pKi [28]: < 5.00
pKi [29]: 6.38
pKi [30]: 5.59
pKi [31]: 6.64
pKi [32]: < 5.00
pKi [33]: < 5.00
pKi [34]: 8.96
pKi [35]: < 5.00
pKi [36]: < 5.00
pKi [37]: 7.47
Ki [38]: > 10 µM
pKi [39]: < 5.00
pKi [40]: < 5.00
pKi [41]: 6.60
pKi [42]: < 5.00
pKi [43]: < 5.00
pKi [44]: < 5.00
pKi [45]: < 5.00
Activity [46]: Active
pEC50 [47]: 9.52
pKi [48]: 5.67
pKi [49]: < 5.00
SMILES: COc1cccc(N2CCN(CCCCn3ncc(=O)n(C)c3=O)CC2)c1
pKi [9]: < 5.00
